Source: patent US11219650B2, “Agent for preventing or treating small intestinal injury induced by specific NSAID and PPI” (priority 2018, dated 2022)

Columns and labels:
[1] = tested on: small intestinal injury; conditions: rat, in vivo
Experimental: (§1) The animals were allowed to free access to a solid diet (CE-2, CLEA Japan, Inc.) and tap water.
(§2) At the start of the experiments, the blood was collected from the tail vein with hematocrit capillary tubes (Thermo Fisher Scientific K.K.) to measure hematocrit values. […] After grouping, the body weight of the animals was measured for nine days, and one of the PPIs (10 mg/kg) was intraperitoneally administered twice a day. For the normal group and the NSAID alone administration groups, vehicle was administered instead of the PPIs. From day 6 of PPI administration, one of the NSAIDs (10 mg/kg) was administered by oral gavage twice a day. For the normal group, vehicle was administered instead of the NSAIDs. For the bifidobacteria administration groups, one strain of the bacteria (1×10^9 cfu (colony forming unit)/animal) was further administered by oral gavage once a day. For the other groups, physiological saline was administered instead of the bifidobacteria. On the final day of the experiments, the hematocrit values were measured again, and the difference between the start and the end of the experiments was calculated and expressed as the rate of change of the hematocrit values. In aspirin administration experiments, the animals were fed with a high-fructose diet (EPS EKISHIN Co., Ltd) from the starting day of PPI administration.
(§3) Bifidobacteria administration was not performed. […]

[2] = tested on: small intestinal injury; test: Comparative Example 1: degree of small intestinal injury induction by sulindac and omeprazole, rate of change of hematocrit values; conditions: rats; sulindac as NSAID + omeprazole as PPI; no bifidobacteria; FIG. 10
Experimental: as §1, §2, §3

[3] = tested on: small intestinal injury; conditions: Non-Patent Literature 1 (Wallace et al., Gastroenterology 2011); cited from earlier work
[4] = tested on: small intestinal injury induced by NSAID and PPI; test: Test 1: inhibitory effects on NSAID and PPI induced small intestinal injury, rate of change of hematocrit values; format: in vivo, Wister male rats; conditions: rats, bacteria 1×10^9 cfu/animal oral once a day
Experimental: Frozen stocks of the following bacterial strains were statically cultured in GAM broth at 37° C. for 24 hours: the Bifidobacterium bifidum G9-1 strain (B. bifidum G9-1) (Accession No. NITE BP-817), the Bifidobacterium longum reference strain JCM (registered trademark) 1217^T (B. longum JCM 1217) (purchased from Japan Collection of Microorganisms (JCM), RIKEN BioResource Research Center), and the Bifidobacterium infantis reference strain JCM 1222T (B. infantis JCM 1222) (purchased from JCM). Each of the bacterial liquid cultures was inoculated into fresh GAM broth at a ratio (by volume) of liquid culture to GAM broth of 1:100, and statically cultured at 37° C. for 24 hours. […]
Small intestinal injury was induced by a combination of (S)-(+)-2-(6-methoxy-2-naphthyl)propionic acid (naproxen, Tokyo Chemical Industry Co., Ltd., dissolved in a 5% NaHCO3 solution; also called NAP) and omeprazole (omz) or by a combination of ibuprofen (Ibu) and omeprazole (omz). […] That is, the effect of B. bifidum on recovery from small intestinal injury induced by ibuprofen and omeprazole when compared with the effect of B. bifidum on recovery from small intestinal injury induced by naproxen and omeprazole was calculated by the following formula, taking the latter effect as 1.

Compound: CC1=C(CC(=O)O)c2cc(F)ccc2/C1=C\c1ccc([S+](C)[O-])cc1 (centres unmarked) [sulindac]
- induction of small intestinal injury by combination of sulindac and omeprazole [1]: does not induce small intestinal injury
- reduction of the hematocrit values induced by sulindac in combination with omeprazole [2]: did not induce reduction of the hematocrit values

Compound: COc1ccc2cc([C@H](C)C(=O)O)ccc2c1 [Naproxen, (S)-(+)-2-(6-methoxy-2-naphthyl)propionic acid]
- induction of small intestinal injury by naproxen in combination with omeprazole [3]: induce small intestinal injury

Compound: Bifidobacterium longum
- inhibitory effect on small intestinal injury (hematocrit reduction) induced by ibuprofen and lansoprazole ([4]; ibuprofen 10 mg/kg oral + lansoprazole 10 mg/kg i.p. twice a day, FIG. 7): higher inhibitory effect
- inhibitory effect on small intestinal injury (hematocrit reduction) induced by ibuprofen and omeprazole ([4]; ibuprofen 10 mg/kg oral + omeprazole 10 mg/kg i.p. twice a day, FIG. 4): higher inhibitory effect
